From patent publication USRE32333E, “A-21978 Antibiotics and process for their production” (priority 1985, dated 1987) come the findings set out here.

≈ marks a conversion by molar mass, not a printed value.

Experiment [1] has as its system A21978.6 (Streptomyces roseosporus NRRL 11379). Briefly: Antibiotic sensitivity of producing culture (sensitivity discs). It counts as cell-based. Set-up: key: + = sensitive (zones of inhibition); - = resistant (no zones of inhibition). The following applies: discs on seeded ISP #2 agar; erythromycin 15 μg, cephalothin 30 μg, lincomycin 2 μg, nystatin 100 units, polymyxin B 300 units, streptomycin 10 μg, tetracycline 30 μg, vancomycin 30 μg. The method, then: Temperature range, NaCl tolerance, pH range, and antibiotic sensitivity were done using ISP #2 agar medium. The range of temperatures were: 25°, 28°, 30°, 34°, 37°, 40°, 45°, 50° and 55° C. NaCl tolerance was measured by adding NaCl to the agar to equal: 0, 1, 2, 3, 4, 5, 6, 8, 10 and 12%. These were incubated at 30° C. The pH range was measured by adjusting the agar from pH 3.0 to 11.0 at increments of 1.0 pH units, just prior to pouring. Antibiotic sensitivity was determined using sensitivity discs padded onto seeded agar plates.

Experiment [2] deals with Streptococcus pyogenes. Briefly: MIC, agar dilution (Table XV). It counts as cell-based. To be noted: read-out: MIC. The source says: (§1) ^1 MIC = minimum inhibitory concentration (μg/ml), agar dilution
Background: In agar dilution the substance is mixed into plates at graded concentrations.

Experiment [3] deals with Streptococcus pneumoniae. Briefly: MIC, agar dilution (Table XV). To be noted: read-out: MIC. It counts as cell-based.
Description: as §1

Experiment [4] relates to Staphylococcus aureus. In words: MIC, agar dilution (Table XV). It counts as cell-based. To be noted: read-out: MIC.
Description: as §1

The subject of experiment [5] is S. roseosporus (ISP 5122; ATCC 23958). In words: Antibiotic sensitivity of comparison culture (sensitivity discs). It counts as cell-based, Streptomyces roseosporus. More on the design: key: + = sensitive (zones of inhibition); - = resistant (no zones of inhibition). The following applies: discs on seeded ISP #2 agar; erythromycin 15 μg, cephalothin 30 μg, lincomycin 2 μg, nystatin 100 units, polymyxin B 300 units, streptomycin 10 μg, tetracycline 30 μg, vancomycin 30 μg. The method, then: Temperature range, NaCl tolerance, pH range, and antibiotic sensitivity were done using ISP #2 agar medium. The range of temperatures were: 25°, 28°, 30°, 34°, 37°, 40°, 45°, 50° and 55° C. NaCl tolerance was measured by adding NaCl to the agar to equal: 0, 1, 2, 3, 4, 5, 6, 8, 10 and 12%. These were incubated at 30° C. The pH range was measured by adjusting the agar from pH 3.0 to 11.0 at increments of 1.0 pH units, just prior to pouring. Antibiotic sensitivity was determined using sensitivity discs padded onto seeded agar plates. Streptomyces roseosporus ISP 5122; ATCC 23958

The subject of experiment [6] is Streptococcus pyogenes. Briefly: Experimental bacterial infection in mice, ED50. It counts as in vivo. To be noted: Streptococcus pyogenes, sc, S. pyogenes infection, two doses, subcutaneous administration, read-out: ED50. The method, then:
(§2) When two doses of test compound were administered to mice in illustrative infections, the activity observed as measured as an ED50 value [effective dose in mg/kg to protect fifty percent of the test animals: See Warren Wick, et al., J. Bacteriol, 81, 233-235 (1961)].

Experiment [7] deals with Streptococcus pneumoniae. Briefly: Experimental bacterial infection in mice, ED50. It counts as in vivo. The following applies: Streptococcus pneumoniae, sc, S. pneumoniae infection, two doses, subcutaneous administration, read-out: ED50. The method, then:
as §2

Experiment [8] concerns Staphylococcus aureus. In words: Experimental bacterial infection in mice, ED50. It counts as in vivo. The following applies: Staphylococcus aureus, sc, S. aureus infection, two doses, subcutaneous administration, read-out: ED50. The method, then: as §2
Experiment [9] deals with Streptococcus faecalis (Guze). Briefly: Streptococcus faecalis descending rat pyelonephritis test. The following applies: 12.0 mg/kg x 7 subcutaneous.

Take `CC[C@H]1OC(=O)[C@H](C)[C@@H](O[C@H]2C[C@@](C)(OC)[C@@H](O)[C@H](C)O2)[C@H](C)[C@@H](O[C@@H]2O[C@H](C)C[C@H](N(C)C)[C@H]2O)[C@](C)(O)C[C@@H](C)C(=O)[C@H](C)[C@@H](O)[C@]1(C)O` [Erythromycin, reference compound]: the “Antibiotic Sensitivity, A21978.6” value in [1] is recorded as “+”. Also, the MIC came out at 0.13 µg/mL (≈ 0.177 µM) in the experiment on Streptococcus pyogenes [2], 0.5 µg/mL (≈ 0.681 µM) in the experiment on Streptococcus pneumoniae [3] and 0.13 µg/mL (≈ 0.177 µM) in the experiment on Staphylococcus aureus [4]. Also, the “Antibiotic Sensitivity, S. roseosporus” value in experiment [5] is recorded as “+”. The ED50 in the experiment on Streptococcus pyogenes [6] is 0.64 mg/kg; in the experiment with Streptococcus pneumoniae [7], 7.3 mg/kg; with Staphylococcus aureus [8], 0.5 mg/kg.

In the case of `[H]/N=C(/N)N[C@H]1[C@H](O)[C@@H](O)[C@H](O[C@@H]2O[C@@H](C)[C@](O)(C=O)[C@H]2O[C@@H]2O[C@@H](CO)[C@H](O)[C@@H](O)[C@@H]2NC)[C@@H](N/C(N)=N\[H])[C@@H]1O` [Streptomycin], the “Antibiotic Sensitivity, A21978.6” value in [1] is “+”. In addition, the “Antibiotic Sensitivity, S. roseosporus” value in [5] is on record as “+”.

For the compound Polymyxin B, the “Antibiotic Sensitivity, A21978.6” value in [1] is on record as “+”. For the same compound, the “Antibiotic Sensitivity, S. roseosporus” value in experiment [5] was “-”.

As for `C[C@@H]1[C@H](O)[C@@H](C)/C=C/C=C/CC/C=C/C=C/C=C/C=C/C(O[C@H]2O[C@H](C)[C@@H](O)[C@H](N)[C@@H]2O)CC2O[C@](O)(CC(O)C(O)CCC(O)CC(O)CC(O)CC(=O)O[C@H]1C)CC(O)C2C(=O)O` (stereo partly drawn) [Nystatin], the “Antibiotic Sensitivity, A21978.6” value in experiment [1] is “-”. The “Antibiotic Sensitivity, S. roseosporus” value in experiment [5] is “-”.

As to `CC(=O)OCC1=C(C(=O)O)N2C(=O)[C@@H](NC(=O)Cc3cccs3)[C@H]2SC1` [Cephalothin], the “Antibiotic Sensitivity, A21978.6” value in experiment [1] was “+”. Also, in experiment [5], the “Antibiotic Sensitivity, S. roseosporus” value is listed as “+”.

With `CN[C@H](CC(C)C)C(=O)N[C@H]1C(=O)N[C@@H](CC(N)=O)C(=O)N[C@H]2C(=O)N[C@H]3C(=O)N[C@H](C(=O)N[C@H](C(=O)O)c4cc(O)cc(O)c4-c4cc3ccc4O)[C@H](O)c3ccc(c(Cl)c3)Oc3cc2cc(c3O[C@@H]2O[C@H](CO)[C@@H](O)[C@H](O)[C@H]2O[C@H]2C[C@](C)(N)[C@H](O)[C@H](C)O2)Oc2ccc(cc2Cl)[C@H]1O` [Vancomycin, reference compound], the “Antibiotic Sensitivity, A21978.6” value in [1] is recorded as “+”. In addition, the “Antibiotic Sensitivity, S. roseosporus” value in experiment [5] is “+”. The “Percent of Rats Cured” value in experiment [9] (cure = kidney counts less than 10^2 per g) came out at 33. Also, the “Percent of Rats with a 4-Log Titer Decrease” value in experiment [9] (once daily, kidney titer vs infected controls) was determined as 55.

`CCC[C@@H]1C[C@@H](C(=O)N[C@@H]([C@H]2O[C@H](SC)[C@H](O)[C@@H](O)[C@H]2O)[C@@H](C)O)N(C)C1` [Lincomycin]: the “Antibiotic Sensitivity, A21978.6” value in experiment [1] was “-”. The “Antibiotic Sensitivity, S. roseosporus” value in experiment [5] is recorded as “-”.

For `CN(C)[C@@H]1C(O)=C(C(N)=O)C(=O)[C@@]2(O)C(O)=C3C(=O)c4c(O)cccc4[C@@](C)(O)[C@H]3C[C@@H]12` [Tetracycline], the “Antibiotic Sensitivity, A21978.6” value in experiment [1] is reported as “+”. In addition, in experiment [5], the “Antibiotic Sensitivity, S. roseosporus” value is “+”.

The MIC is the lowest concentration found to suppress growth. Usually ED50 stands for the midpoint of the dose-response relation.
